The text below walks through data of article PMC8001250 (Biomolecules, 2021).

Data set [1] has as its system A. baumannii ATCC 19609. Format: cell-based. Particulars: ATCC 19609, 18 h. The procedure: (§1) Bacteria were streaked from frozen glycerol stocks onto LB agar plates (E. coli D31, S. aureus ATCC 35556, P. aeruginosa PA-01, A. baumannii ATCC 19609). The plates were incubated at 37 °C for ~18 h to allow growth. An individual colony from each plate was transferred into individual sterile tubes containing 3 mL of Muller Hinton (MH) broth and subsequently incubated for 18 h with shaking (225 rpm) at 37 °C. An aliquot of this culture was then diluted with fresh MH broth (1:250) and further incubated with shaking (225 rpm) at 37 °C until an OD600 of 0.2–0.4 was reached. This mid-log culture was then diluted to 5 × 10^5 CFU/mL in fresh MH broth. Serially diluted peptides were dispensed in a 96-well plate such that the final concentration in each well would be in the range of 15 µM to 0.234 µM. Then, 90 µL of the freshly diluted culture was transferred to the 96-well plate, yielding a final volume of 100 µL. The 96-well plate was covered and transferred to a humidified incubator at 37 °C for 18 h. The growth and inhibition of bacterial growth were determined by measuring OD600 directly in the plate and comparing to an untreated control. The Minimum Bactericidal Concentration (MBC) was determined by transferring 1 µL of culture from each well of the MIC plate onto fresh LB agar plates and allowed to incubate overnight at 37 °C.

Data set [2] concerns P. aeruginosa PA-01. It is filed as cell-based. As to conditions: PA-01, 18 h. On the procedure:
as §1

For data set [3], the system named is S. aureus ATCC 35556. Format: cell-based. Particulars: ATCC 35556, 18 h. The procedure: as §1
The test system of another data set is trypsin. As to the kind of experiment: trypsin (50 µL of 0.001 mg/mL solution) in buffer (50 mM sodium phosphate, 100 mM NaCl, pH 7.0). Particulars: room temperature, up to 4 hours.
A further data set relates to E. coli D31. Particulars: previously reported activity of the parent peptide; ref [30]; cited from earlier work. From the text:
Table 2 Bacterial growth inhibition/killing concentration (µM). | column: E. coli

Data set [4] concerns S. aureus ATCC 35556. Particulars: previously reported activity of the parent peptide; ref [30]; cited from earlier work. From the text: Table 2 Bacterial growth inhibition/killing concentration (µM). | column: S. aureus
In data set [5] the test system is P. aeruginosa PA-01. As to conditions: previously reported activity of the parent peptide; ref [30]; cited from earlier work. From the text: Table 2 Bacterial growth inhibition/killing concentration (µM). | column: P. aeruginosa
Data set [6] concerns A. baumannii ATCC 19609. As to conditions: previously reported activity of the parent peptide; ref [30]; cited from earlier work. The source says:
Table 2 Bacterial growth inhibition/killing concentration (µM). | column: A. baumannii

Converted amounts (≈) assume the structure as drawn. “Also recorded” adds a separate entry of the source. Read-outs that look alike come from different tables or passages of the source. Non-standard residues stand in square brackets, D forms with d. Residues, ends and D or L forms follow the SMILES beside them. Ala(azulen-1-yl) = N[C@@H](Cc1ccc2cccccc1-2)C(=O)O

Consider `CC[C@H](C)[C@H](NC(=O)[C@H](Cc1c[nH]c2ccccc12)NC(=O)[C@@H](NC(=O)[C@H](Cc1ccc2cccccc1-2)NC(=O)[C@@H]1CCCN1C(=O)[C@@H](NC(=O)[C@H](C)N)[C@@H](C)CC)[C@@H](C)CC)C(=O)N[C@@H](Cc1c[nH]c2ccccc12)C(=O)N[C@@H](CCCNC(=N)N)C(=O)N[C@@H](CC(C)C)C(=O)N[C@@H](CC(C)C)C(=O)N[C@@H](CCCNC(=N)N)C(=O)N[C@@H](CCCCN)C(=O)NCC(N)=O` [Peptide Z4] (H-AIP[Ala(azulen-1-yl)]IWIWRLLRKG-NH2), for which, in the data set with A. baumannii ATCC 19609 [1], the “MBC, A. baumannii” value was found to be 7.50 µM (≈ 13.6 µg/mL) and the “MIC, A. baumannii” value was determined as 7.50 µM (≈ 13.6 µg/mL). Also, in the data set on P. aeruginosa PA-01 [2], the “MBC, P. aeruginosa” value was above 15 µM and the “MIC, P. aeruginosa” value is above 15 µM. In the data set on S. aureus ATCC 35556 [3], the “MBC, S. aureus” value came to 7.50 µM (≈ 13.6 µg/mL) and the “MIC, S. aureus” value was 7.50 µM (≈ 13.6 µg/mL).

In the case of `CC[C@H](C)[C@H](NC(=O)[C@H](Cc1ccc2cccccc1-2)NC(=O)[C@@H](NC(=O)[C@H](Cc1c[nH]c2ccccc12)NC(=O)[C@@H]1CCCN1C(=O)[C@@H](NC(=O)[C@H](C)N)[C@@H](C)CC)[C@@H](C)CC)C(=O)N[C@@H](Cc1c[nH]c2ccccc12)C(=O)N[C@@H](CCCNC(=N)N)C(=O)N[C@@H](CC(C)C)C(=O)N[C@@H](CC(C)C)C(=O)N[C@@H](CCCNC(=N)N)C(=O)N[C@@H](CCCCN)C(=O)NCC(N)=O` [Peptide Z6] (H-AIPWI[Ala(azulen-1-yl)]IWRLLRKG-NH2), in the data set with A. baumannii ATCC 19609 [1], the “MBC, A. baumannii” value turned out to be 7.50 µM (≈ 13.6 µg/mL) and the “MIC, A. baumannii” value is given as 3.75 µM (≈ 6.82 µg/mL). In addition, in the data set with P. aeruginosa PA-01 [2], the “MBC, P. aeruginosa” value was above 15 µM and the “MIC, P. aeruginosa” value was above 15 µM. In the data set with S. aureus ATCC 35556 [3], the “MBC, S. aureus” value is on record as 1.88 µM (≈ 3.42 µg/mL) and the “MIC, S. aureus” value came out at 1.88 µM (≈ 3.42 µg/mL).

Regarding `CC[C@H](C)[C@H](NC(=O)[C@H](Cc1c[nH]c2ccccc12)NC(=O)[C@@H](NC(=O)[C@H](Cc1c[nH]c2ccccc12)NC(=O)[C@@H]1CCCN1C(=O)[C@@H](NC(=O)[C@H](C)N)[C@@H](C)CC)[C@@H](C)CC)C(=O)N[C@@H](Cc1ccc2cccccc1-2)C(=O)N[C@@H](CCCNC(=N)N)C(=O)N[C@@H](CC(C)C)C(=O)N[C@@H](CC(C)C)C(=O)N[C@@H](CCCNC(=N)N)C(=O)N[C@@H](CCCCN)C(=O)NCC(N)=O` [Peptide Z8] (H-AIPWIWI[Ala(azulen-1-yl)]RLLRKG-NH2), in the data set on A. baumannii ATCC 19609 [1], the “MBC, A. baumannii” value is given as 7.50 µM (≈ 13.6 µg/mL) and the “MIC, A. baumannii” value stood at 7.50 µM (≈ 13.6 µg/mL). Also, in the data set with P. aeruginosa PA-01 [2], the “MBC, P. aeruginosa” value is listed as above 15 µM and the “MIC, P. aeruginosa” value is on record as above 15 µM. Further, in the data set with S. aureus ATCC 35556 [3], the “MBC, S. aureus” value is listed as 15.00 µM (≈ 27.3 µg/mL) and the “MIC, S. aureus” value is 7.50 µM (≈ 13.6 µg/mL).

As to AIPWIWIWRLLRKG, in the data set on trypsin, the fragment found result is “AIPWIWIWR; also recorded: AIPWIWIWRLLR”.

Consider H-AIPWIWIWRLLRKG-NH2 [WWW], for which, in the data set with E. coli D31, the “MBC, E. coli” value is 7.50 µM and the “MIC, E. coli” value is listed as 7.50 µM. Moreover, in the data set with S. aureus ATCC 35556 [4], the “MBC, S. aureus” value was 3.75 µM and the “MIC, S. aureus” value is on record as 3.75 µM. In the data set with P. aeruginosa PA-01 [5], the “MBC, P. aeruginosa” value is recorded as above 15 µM and the “MIC, P. aeruginosa” value is on record as 15.00 µM. Further, in the data set with A. baumannii ATCC 19609 [6], the “MBC, A. baumannii” value is on record as 3.75 µM and the “MIC, A. baumannii” value was 3.75 µM.
